One block for each compound: values may come before it.
Assays:
[1] = Inhibition of LOX (unknown origin); design: species or system Homo sapiens
Mus musculus = assay: Anti-inflammatory activity in mouse assessed as inhibition of xylene induced ear edema at 30 mg/kg relative to control; format: functional; design: scale not given: the % may be the effect or the level left
[2] = Inhibition of soybean 15-LOX using linoleic acid as substrate preincubated for 15 mins followed by substrate addition and measured up to 6 mins by spectrophotometric analysis; design: species or system Glycine max
[3] = molecular target: T1, Arachidonate 5-lipoxygenase-activating protein (Homo sapiens, UniProt P20292); assay: Inhibition of FLAP in human neutrophils assessed as decrease in LT biosynthesis preincubated for 15 mins followed by AA substrate addition by HPLC analysis
T1 sequence (P20292 whole entry): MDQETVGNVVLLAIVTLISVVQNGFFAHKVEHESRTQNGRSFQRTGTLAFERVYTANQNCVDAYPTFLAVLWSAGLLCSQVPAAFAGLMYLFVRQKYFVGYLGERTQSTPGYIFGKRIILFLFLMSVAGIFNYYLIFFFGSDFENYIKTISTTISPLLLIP

[4] = molecular target: T1, Arachidonate 5-lipoxygenase-activating protein; assay: Inhibition of FLAP in human leukocytes assessed as decrease in ionophore A23187-induced LT biosynthesis after 10 mins; format: cell-based
[5] = molecular target: T2, Polyunsaturated fatty acid 5-lipoxygenase (Homo sapiens, UniProt P09917); assay: Inhibition of 5-LOX (unknown origin)
T2 sequence (P09917 whole entry): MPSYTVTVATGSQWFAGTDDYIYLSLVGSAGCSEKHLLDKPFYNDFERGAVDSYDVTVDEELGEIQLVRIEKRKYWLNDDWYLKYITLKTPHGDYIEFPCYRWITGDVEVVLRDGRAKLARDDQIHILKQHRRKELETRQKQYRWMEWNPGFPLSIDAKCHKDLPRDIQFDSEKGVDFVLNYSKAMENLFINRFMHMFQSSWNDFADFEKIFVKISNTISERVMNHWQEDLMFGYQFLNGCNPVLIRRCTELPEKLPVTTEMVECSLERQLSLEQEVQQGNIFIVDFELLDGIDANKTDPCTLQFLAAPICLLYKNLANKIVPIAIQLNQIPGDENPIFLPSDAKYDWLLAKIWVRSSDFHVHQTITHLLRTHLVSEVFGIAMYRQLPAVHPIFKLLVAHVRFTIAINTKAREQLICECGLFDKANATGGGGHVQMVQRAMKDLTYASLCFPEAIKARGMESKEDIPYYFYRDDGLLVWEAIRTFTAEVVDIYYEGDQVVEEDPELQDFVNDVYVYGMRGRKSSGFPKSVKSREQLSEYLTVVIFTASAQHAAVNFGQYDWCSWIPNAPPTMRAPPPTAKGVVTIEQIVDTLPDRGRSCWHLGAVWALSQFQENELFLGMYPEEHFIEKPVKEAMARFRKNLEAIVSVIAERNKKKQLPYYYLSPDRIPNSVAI

[6] = Inhibition of soybean 5LOX using linoleic acid as substrate preincubated for 5 mins followed by substrate addition and measured after 20 mins by spectrophotometric analysis; design: species or system Glycine max
[7] = molecular target: T3, Polyunsaturated fatty acid lipoxygenase ALOX15 (Homo sapiens) (UniProt P16050); assay: Inhibition of 15-LOX (unknown origin) at 12.7 uM relative to control
T3 sequence (whole entry): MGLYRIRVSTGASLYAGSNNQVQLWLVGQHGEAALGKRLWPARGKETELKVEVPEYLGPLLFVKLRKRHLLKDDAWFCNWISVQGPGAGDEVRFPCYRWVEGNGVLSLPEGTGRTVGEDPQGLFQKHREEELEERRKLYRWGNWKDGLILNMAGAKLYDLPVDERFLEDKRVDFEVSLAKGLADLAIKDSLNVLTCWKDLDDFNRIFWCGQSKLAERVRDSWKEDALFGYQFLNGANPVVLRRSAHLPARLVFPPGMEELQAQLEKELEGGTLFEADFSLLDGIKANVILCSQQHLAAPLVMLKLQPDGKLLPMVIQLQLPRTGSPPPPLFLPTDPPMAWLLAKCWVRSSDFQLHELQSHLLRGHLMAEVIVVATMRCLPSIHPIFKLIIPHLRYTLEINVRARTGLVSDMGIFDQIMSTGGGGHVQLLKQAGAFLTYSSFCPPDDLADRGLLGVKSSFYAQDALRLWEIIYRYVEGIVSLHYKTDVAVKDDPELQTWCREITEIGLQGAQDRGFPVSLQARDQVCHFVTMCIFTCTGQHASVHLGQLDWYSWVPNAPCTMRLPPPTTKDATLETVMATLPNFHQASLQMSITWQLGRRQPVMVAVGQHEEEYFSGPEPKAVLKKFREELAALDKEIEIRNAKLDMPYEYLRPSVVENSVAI

[8] = molecular target: T4, Seed linoleate 13S-lipoxygenase-1 (Glycine max, UniProt P08170); assay: Inhibition of soybean LOX-1 using linoleic acid as substrate preincubated for 120 secs with substrate followed by enzyme addition and measured every 30 secs for 7.5 mins by spectrophotometric analysis
T4 sequence (P08170 whole entry): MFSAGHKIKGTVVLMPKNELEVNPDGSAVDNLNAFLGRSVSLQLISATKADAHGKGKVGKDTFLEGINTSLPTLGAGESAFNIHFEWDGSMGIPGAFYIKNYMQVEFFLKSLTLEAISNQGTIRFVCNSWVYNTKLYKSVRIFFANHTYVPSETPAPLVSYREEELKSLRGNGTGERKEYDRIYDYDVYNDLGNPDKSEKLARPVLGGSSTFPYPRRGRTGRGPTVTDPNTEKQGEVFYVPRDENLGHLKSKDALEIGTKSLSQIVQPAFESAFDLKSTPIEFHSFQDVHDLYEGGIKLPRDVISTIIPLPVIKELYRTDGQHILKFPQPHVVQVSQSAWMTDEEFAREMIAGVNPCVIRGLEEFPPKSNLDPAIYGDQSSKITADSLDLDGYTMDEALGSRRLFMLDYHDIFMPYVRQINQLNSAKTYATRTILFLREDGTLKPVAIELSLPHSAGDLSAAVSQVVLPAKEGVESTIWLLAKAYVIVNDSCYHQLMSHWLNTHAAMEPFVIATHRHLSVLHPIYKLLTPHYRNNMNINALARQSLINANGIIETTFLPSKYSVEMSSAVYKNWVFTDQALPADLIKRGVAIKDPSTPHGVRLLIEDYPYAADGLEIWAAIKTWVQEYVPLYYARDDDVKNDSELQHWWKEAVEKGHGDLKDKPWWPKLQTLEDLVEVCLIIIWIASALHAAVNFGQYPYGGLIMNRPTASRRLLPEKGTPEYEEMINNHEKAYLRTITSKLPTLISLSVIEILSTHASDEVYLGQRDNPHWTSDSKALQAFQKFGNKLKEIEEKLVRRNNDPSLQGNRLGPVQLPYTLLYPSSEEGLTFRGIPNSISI

[9] = molecular target: T5, Polyunsaturated fatty acid 5-lipoxygenase (Rattus norvegicus, UniProt P12527); assay: Inhibition of rat 5-LOX expressed in Sf21 insect cells preincubated for 4 mins followed by AA substrate addition and measured after 4 mins by FOX assay
T5 sequence (P12527 whole entry): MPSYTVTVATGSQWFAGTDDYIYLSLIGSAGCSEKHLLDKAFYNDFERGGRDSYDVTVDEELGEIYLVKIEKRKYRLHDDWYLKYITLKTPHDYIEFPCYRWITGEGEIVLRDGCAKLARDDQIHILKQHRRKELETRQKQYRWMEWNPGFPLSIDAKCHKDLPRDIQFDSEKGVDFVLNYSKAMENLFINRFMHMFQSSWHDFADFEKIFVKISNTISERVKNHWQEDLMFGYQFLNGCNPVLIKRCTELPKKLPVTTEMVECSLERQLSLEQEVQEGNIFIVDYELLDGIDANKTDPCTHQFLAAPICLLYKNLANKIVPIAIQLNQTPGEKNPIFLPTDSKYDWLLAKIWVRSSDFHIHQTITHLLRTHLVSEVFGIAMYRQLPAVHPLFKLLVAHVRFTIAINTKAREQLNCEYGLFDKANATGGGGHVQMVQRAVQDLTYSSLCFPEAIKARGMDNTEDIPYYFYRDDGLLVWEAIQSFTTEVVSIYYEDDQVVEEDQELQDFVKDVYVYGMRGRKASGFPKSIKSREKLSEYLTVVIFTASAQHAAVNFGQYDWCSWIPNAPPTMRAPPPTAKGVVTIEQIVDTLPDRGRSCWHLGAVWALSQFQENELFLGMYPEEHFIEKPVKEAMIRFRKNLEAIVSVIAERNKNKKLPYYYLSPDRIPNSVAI

[10] = molecular target: T6, Polyunsaturated fatty acid lipoxygenase ALOX12 (Homo sapiens, UniProt P18054); assay: Inhibition of human N-terminal His-tagged 12-LOX expressed in Escherichia coli(Rosetta) by rhodamine 123 dye-based fluorescence assay
T6 sequence (P18054 whole entry): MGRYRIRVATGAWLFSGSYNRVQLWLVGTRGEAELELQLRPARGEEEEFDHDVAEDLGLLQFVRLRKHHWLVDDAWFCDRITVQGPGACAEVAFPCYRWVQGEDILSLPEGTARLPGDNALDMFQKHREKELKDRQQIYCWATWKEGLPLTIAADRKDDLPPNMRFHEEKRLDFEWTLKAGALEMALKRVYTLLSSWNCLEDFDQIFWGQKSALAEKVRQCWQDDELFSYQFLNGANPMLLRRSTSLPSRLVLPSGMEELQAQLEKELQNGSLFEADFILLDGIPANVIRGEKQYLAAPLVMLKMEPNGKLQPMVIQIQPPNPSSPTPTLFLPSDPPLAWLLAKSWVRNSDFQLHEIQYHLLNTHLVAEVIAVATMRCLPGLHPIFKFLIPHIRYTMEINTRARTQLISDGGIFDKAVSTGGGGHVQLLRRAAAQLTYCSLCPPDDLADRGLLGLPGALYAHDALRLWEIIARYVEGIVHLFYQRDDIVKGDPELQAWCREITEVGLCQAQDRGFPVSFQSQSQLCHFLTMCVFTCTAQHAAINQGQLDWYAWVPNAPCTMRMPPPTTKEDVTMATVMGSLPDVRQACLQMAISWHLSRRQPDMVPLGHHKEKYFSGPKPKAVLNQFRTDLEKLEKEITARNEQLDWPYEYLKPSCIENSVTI

[11] = molecular target: T7, Polyunsaturated fatty acid lipoxygenase ALOX15 (Homo sapiens, UniProt P16050); assay: Inhibition of human N-terminal His-tagged 15-LOX expressed in Escherichia coli(Rosetta) by rhodamine 123 dye-based fluorescence assay
T7 sequence (P16050 whole entry): T3 sequence (whole entry)

[12] = molecular target: T2, Polyunsaturated fatty acid 5-lipoxygenase; assay: Inhibition of human N-terminal His-tagged 5-LOX expressed in Escherichia coli(Rosetta) by rhodamine 123 dye-based fluorescence assay

Structure (SMILES): CS(=O)(=O)c1ccc(-c2nc(SCCN(O)C(N)=O)nn2-c2ccc(Br)cc2)cc1
- IC50 [1]: 0.85 µM
- Activity (Mus musculus): 54.1%

Structure (SMILES): CCCCC(=O)c1c(O)cc(O)c(C/C=C(\C)CCC=C(C)C)c1O
- IC50 [2]: 10.3 µM

Structure (SMILES): O=C(O)Cc1c[nH]c2ccccc12 [INDOLE-3-ACETIC ACID]
- IC50 [1]: 43 µM

Structure (SMILES): Cc1ccc(-c2cc(C(F)(F)F)nn2-c2ccc(S(N)(=O)=O)cc2)cc1 [CELECOXIB]
- Activity (Mus musculus): 46.7%

Structure (SMILES): CS(=O)(=O)c1ccc(-n2nc(-c3ccc(-c4ccccc4)cc3)c3ccccc3c2=O)cc1
- IC50 [5]: 6.2 µM

Structure (SMILES): O=C(O)CCCc1c[nH]c2ccccc12
- IC50 [1]: 17.8 µM

Structure (SMILES): O=C(Cc1c[nH]c2ccccc12)NN=C(c1ccccc1)c1ccccc1
- IC50 [1]: 53.6 µM

Structure (SMILES): C/C(=C\COc1cc2oc(=O)ccc2cc1O)C/C=C/C(C)(C)O
- inhibition [7]: 34.8%

Structure (SMILES): CC[C@H](C)/C=C(C)/C=C/C1=C(Br)C2=CC(=O)C(C)(O)C(=O)C2=CO1 (stereo not given in full)
- IC50 [8]: 3.2 µM

Other lines, results leading:

- IC50 [3]: 4.4 µM
Structure (SMILES): Cc1noc(-c2ccc(OCc3ccc4ccccc4n3)cc2)c1-c1ccc(Cl)cc1

- IC50 [4]: 0.102 µM
Structure (SMILES): CC(C)c1ccc2c(c1)c(SC(C)(C)C)c(CC(C)(C)C(=O)O)n2Cc1ccc(Cl)cc1

- IC50 [6]: 2.1 µM
Structure (SMILES): COc1ccc2nc(NCC(O)COc3ccc4c(C)cc(=O)oc4c3)sc2c1 (stereo not given)

- IC50 [9]: 0.127 µM
Structure (SMILES): Cc1cc(Nc2nc(-c3ccc(Cl)cc3)cs2)cc(C)c1O

- IC50 [10]: 0.21 µM
- IC50 [11]: 1.21 µM
- IC50 [12]: 2.35 µM
Structure (SMILES): CC(C)=CCc1c(O)cc(-c2cc3ccc(O)cc3o2)cc1O [MORACIN C]

- IC50 [6]: 2.8 µM
Structure (SMILES): Cc1cc(=O)oc2cc(OCC(O)CNc3nc4ccc(Cl)cc4s3)ccc12 (stereo not given)

- IC50 [10]: 1.3 µM
- IC50 [12]: 1.67 µM
Structure (SMILES): CC(C)/C=C/c1c(O)cc(-c2cc3ccc(O)cc3o2)cc1O

Source: ChEMBL document CHEMBL4257455, “Recent development of lipoxygenase inhibitors as anti-inflammatory agents” (Medchemcomm, 2018)
